Measured values as given in patent US9695155B2, “Herbicidal substituted pyrimidinyloxy benzene compounds” (E. I. DU PONT DE NEMOURS AND COMPANY, priority 2013, dated 2017).

How the values were obtained:
lambsquarters = test: Test C preemergence; type: in vivo, Chenopodium album; details: for Lambsquarters plant response rating: preemergence, scale 0 (no effect) to 100 (complete control)
Summary of the method: (§1)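 Whole-plant greenhouse test with surfactant-containing solvent formulation, applied preemergence to sown loam–sand pots or postemergence to 2–18 cm plants. Scored by eye 13 to 15 days on, 0–100 scale.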

soybean = test: Test C postemergence; type: in vivo, Glycine max
Summary of the method: as §1

pigweed = test: Test A postemergence; type: in vivo, Amaranthus retroflexus; details: 0 to 100 scale where 0 is no effect and 100 is complete control
Summary of the method: (§2)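 Visual injury scored 0–100 (100 = complete control) against untreated controls about 10 days after treatment in a greenhouse. Test chemicals, formulated with surfactant in non-phytotoxic solvent, were sprayed on soil preemergence or on 2-10 cm, one- to two-leaf plants postemergence.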

morningglory = test: Test A postemergence; type: in vivo, Ipomoea spp.; details: 0 to 100 scale where 0 is no effect and 100 is complete control
Summary of the method: as §2

Italian ryegrass [1] = test: Test C preemergence; type: in vivo, Lolium multiflorum; details: for Ryegrass, Italian plant response rating: preemergence, scale 0 (no effect) to 100 (complete control)
Summary of the method: as §1

giant foxtail [2] = test: Test A preemergence; type: in vivo, Setaria faberii
Summary of the method: as §2

Heteranthera limosa = test: Test B flooded paddy test; type: in vivo; details: Flood, 250 g ai/ha; 0 to 100 scale where 0 is no effect and 100 is complete control
Summary of the method: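 Flooded to 3 cm at the 2-leaf stage, pots received compound through the paddy water and were kept at that depth under greenhouse conditions. After 13–15 days, effect was rated by eye relative to controls, 0 = none and 100 = complete control.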

wheat, winter = test: Test C preemergence; type: in vivo, Triticum aestivum; details: for Wheat plant response rating: preemergence, scale 0 (no effect) to 100 (complete control)
Summary of the method: as §1

johnsongrass = test: Test C postemergence; type: in vivo, Sorghum halepense
Summary of the method: as §1

blackgrass = test: Test C preemergence; type: in vivo, Alopecurus myosuroides; details: for Blackgrass plant response rating: preemergence, scale 0 (no effect) to 100 (complete control)
Summary of the method: as §1

barnyardgrass [3] = test: Test A postemergence; type: in vivo, Echinochloa crus-galli; details: 0 to 100 scale where 0 is no effect and 100 is complete control
Summary of the method: as §2

giant foxtail [4] = test: Test A postemergence; type: in vivo, Setaria faberii; details: 0 to 100 scale where 0 is no effect and 100 is complete control
Summary of the method: as §2

velvetleaf = test: Test C preemergence; type: in vivo, Abutilon theophrasti; details: for Velvetleaf plant response rating: preemergence, scale 0 (no effect) to 100 (complete control)
Summary of the method: as §1

barnyardgrass [5] = test: Test C preemergence; type: in vivo, Echinochloa crus-galli; details: for Barnyardgrass plant response rating: preemergence, scale 0 (no effect) to 100 (complete control)
Summary of the method: as §1

Italian ryegrass [6] = test: Test C postemergence; type: in vivo, Lolium multiflorum
Summary of the method: as §1

[7] = Preemergence, 62 g ai/ha, scale 0 to 100, 0 no effect, 100 complete control
[8] = 31 g ai/ha, postemergence, visual rating, scale 0 to 100 (0 no effect, 100 complete control), 13 to 15 days
[9] = 125 g ai/ha, postemergence, visual rating, scale 0 to 100 (0 no effect, 100 complete control)
[10] = Postemergence, 62 g ai/ha, scale 0 to 100 (0 no effect, 100 complete control), 13 to 15 days

N#Cc1cccc(Oc2ncc(Cl)cn2)c1-n1cc(I)cn1 [Compound 204]
Lambsquarters plant response rating (lambsquarters; 125 g ai/ha): 95 | Lambsquarters plant response rating (lambsquarters; 250 g ai/ha): 98 | Plant response rating, Lambsquarters (lambsquarters; [7]): 98 | Soybean plant response rating (soybean; [8]): 70 | Plant response rating, Soybean (soybean; [9]): 95 | Plant response rating (0 to 100), Soybean (soybean; 250 g ai/ha, postemergence): 95 | Plant response rating, Soybean (soybean; [10]): 95 | Pigweed plant response rating (pigweed; 125 g ai/ha): 100 | Plant response rating, Pigweed (pigweed; 500 g ai/ha): 100 | Morningglory plant response rating (morningglory; 125 g ai/ha): 80 | Plant response rating, Morningglory (morningglory; 500 g ai/ha): 100 | Ryegrass, Italian plant response rating (Italian ryegrass [1]; 125 g ai/ha): 75 | Ryegrass, Italian plant response rating (Italian ryegrass [1]; 250 g ai/ha): 95 | Plant response rating, Ryegrass, Italian (Italian ryegrass [1]; [7]): 35 | Foxtail, Giant plant response rating (0 to 100 scale) (giant foxtail [2]; 125 g ai/ha): 100 | Foxtail, Giant plant response rating (giant foxtail [2]; 500 g ai/ha, 0 to 100 scale where 0 is no effect and 100 is complete control): 100 | Plant response rating, Ducksalad (Heteranthera limosa): 70 | Wheat plant response rating (wheat, winter; 125 g ai/ha): 30 | Wheat plant response rating (wheat, winter; 250 g ai/ha): 60 | Plant response rating, Wheat (wheat, winter; [7]): 5 | Johnsongrass plant response rating (johnsongrass; [8]): 5 | Plant response rating, Johnsongrass (johnsongrass; [9]): 10 | Plant response rating (0 to 100), Johnsongrass (johnsongrass; 250 g ai/ha, postemergence): 30 | Plant response rating, Johnsongrass (johnsongrass; [10]): 5 | Blackgrass plant response rating (blackgrass; 125 g ai/ha): 90 | Blackgrass plant response rating (blackgrass; 250 g ai/ha): 95 | Plant response rating, Blackgrass (blackgrass; [7]): 80 | Barnyardgrass plant response rating (barnyardgrass [3]; 125 g ai/ha): 80 | Plant response rating, Barnyardgrass (barnyardgrass [3]; 500 g ai/ha): 90 | Foxtail, Giant plant response rating (giant foxtail [4]; 125 g ai/ha): 80 | Plant response rating, Foxtail, Giant (giant foxtail [4]; 500 g ai/ha): 100 | Velvetleaf plant response rating (velvetleaf; 125 g ai/ha): 98 | Velvetleaf plant response rating (velvetleaf; 250 g ai/ha): 98 | Plant response rating, Velvetleaf (velvetleaf; [7]): 85 | Barnyardgrass plant response rating (barnyardgrass [5]; 125 g ai/ha): 100 | Barnyardgrass plant response rating (barnyardgrass [5]; 250 g ai/ha): 100 | Plant response rating, Barnyardgrass (barnyardgrass [5]; [7]): 95 | Ryegrass, Italian plant response rating (Italian ryegrass [6]; [8]): 5 | Plant response rating, Ryegrass, Italian (Italian ryegrass [6]; [9]): 10 | Plant response rating (0 to 100), Ryegrass, Italian (Italian ryegrass [6]; 250 g ai/ha, postemergence): 10 | Plant response rating, Ryegrass, Italian (Italian ryegrass [6]; [10]): 5
